Assay results as given in US9446116B2, “Peptide sequences and compositions” (priority 2006, dated 2016).

Tests used:
Influenza A/PR/8/34 = assay type: in vivo, C57BL/6-Tg(HLA-A2.1)1Enge/J mice
primary splenocytes = assay type: cell-based, C57BL/6-Tg(HLA-A2.1)1Enge/J mice; settings: stimulation with P6 (data not shown)

Substance | succumbed to infection (mortality) (Influenza A/PR/8/34; CD8 depletion (anti-CD8 sera days 19 and 22), […], FIG. 3A) [%] | mortality rate (Influenza A/PR/8/34; absence of CD8 depletion (irrelevant sera), FIG. 3B) [%] | IL-4 production (primary splenocytes)
NRP-v: Lysozyme (Sigma) denatured by boiling, used as the control non relevant preparation | 100 | 100 | –
IIGILHLILWILDRLFFKCIYRLF [P6] | – | – | failure of stimulation with P6 to induce any IL-4 production
